Experimental data taken from US20090191636A1, “Method of Producing Transgenic Graminaceous Cells and Plants” (priority 2006, published 2009).

Experiments:
[1] = system: wheat embryos derived from mature dried grain of the cultivar Bobwhite; assay: Effect of D-amino acids on regeneration of wheat from embryos of mature dried grain (Bobwhite); assay type: cell-based, Triticum aestivum; settings: for proportion (%) of explants regenerating after 3 weeks, Average / proportion (%) of explants regenerating after 3 weeks, Experiment number 1 / proportion (%) of explants regenerating after 3 weeks, Experiment number 2 / proportion (%) of explants regenerating after 3 weeks, Experiment number 3: n = 20
Experimental: (§1) A range of concentrations of the D-amino acids D-serine and D-alanine were tested for effects on wheat regeneration and germination from embryos derived from mature dried grain of the cultivar Bobwhite.

[2] = system: wheat mature dried grain of the cultivar Ventura; assay: Effect of D-amino acids on germination of wheat mature dried grain (Ventura); assay type: in vivo; settings: n = 15
Experimental: [Worded in the source for another variant; this variant is reported under the same test.] as §1

[3] = system: wheat embryos derived from mature dried grain of the cultivar Ventura; assay: Effect of D-amino acids on regeneration of wheat from embryos of mature dried grain (Ventura); assay type: cell-based; settings: n = 20
[4] = system: wheat mature dried grain of the cultivar Bobwhite; assay: Effect of D-amino acids on germination of wheat mature dried grain (Bobwhite); assay type: in vivo, Triticum aestivum; settings: n = 15
Experimental: as §1

N[C@H](CO)C(=O)O [D-serine]
18%: proportion (%) of explants germinated after 1 week, Average ([4]; 10 mM)
65%: germination: proportion (%) of explants regenerating after 1 week, Experiment number 1 ([2]; 0.5 mM) | germination: proportion (%) of explants regenerating after 1 week, Experiment number 3 ([2]; 1 mM)
15%: germination: proportion (%) of explants regenerating after 1 week, Experiment number 1 ([2]; 7.5 mM) | proportion (%) of explants regenerating after 3 weeks, Experiment number 2 ([3]; 0.5 mM)
7%: proportion (%) of explants regenerating after 3 weeks, Average ([3]; 1 mM)
53%: germination: proportion (%) of explants regenerating after 1 week, Average ([2]; 5 mM)
45%: proportion (%) of explants regenerating after 3 weeks, Experiment number 1 ([1]; 0.5 mM) | germination: proportion (%) of explants regenerating after 1 week, Experiment number 2 ([2]; 5 mM)
10%: proportion (%) of explants regenerating after 3 weeks, Experiment number 1 ([1]; 5 mM) | proportion (%) of explants regenerating after 3 weeks, Experiment number 2 ([1]; 5 mM) | proportion (%) of explants regenerating after 3 weeks, Average ([3]; 0.5 mM) | proportion (%) of explants regenerating after 3 weeks, Experiment number 1 ([3]; 0.5 mM) | proportion (%) of explants regenerating after 3 weeks, Experiment number 1 ([3]; 1 mM) | proportion (%) of explants germinated after 1 week, Experiment Number 1 ([4]; 7.5 mM)
3%: proportion (%) of explants regenerating after 3 weeks, Average ([1]; 7.5 mM)
80%: proportion (%) of explants germinated after 1 week, Experiment Number 3 ([4]; 0.5 mM) | proportion (%) of explants germinated after 1 week, Experiment Number 2 ([4]; 1 mM)
23%: proportion (%) of explants regenerating after 3 weeks, Average ([1]; 1 mM) | germination: proportion (%) of explants regenerating after 1 week, Average ([2]; 7.5 mM)
43%: germination: proportion (%) of explants regenerating after 1 week, Average ([2]; 10 mM)
85%: germination: proportion (%) of explants regenerating after 1 week, Experiment number 3 ([2]; 0.5 mM)
20%: germination: proportion (%) of explants regenerating after 1 week, Experiment number 2 ([2]; 7.5 mM) | proportion (%) of explants germinated after 1 week, Experiment Number 1 ([4]; 5 mM) | proportion (%) of explants germinated after 1 week, Experiment Number 3 ([4]; 10 mM)
5%: proportion (%) of explants regenerating after 3 weeks, Experiment number 3 ([1]; 0.5 mM) | proportion (%) of explants regenerating after 3 weeks, Experiment number 3 ([1]; 1 mM) | proportion (%) of explants regenerating after 3 weeks, Experiment number 3 ([1]; 5 mM) | proportion (%) of explants regenerating after 3 weeks, Experiment number 2 ([1]; 7.5 mM) | proportion (%) of explants regenerating after 3 weeks, Experiment number 3 ([1]; 7.5 mM) | proportion (%) of explants regenerating after 3 weeks, Experiment number 3 ([3]; 0.5 mM) | proportion (%) of explants regenerating after 3 weeks, Experiment number 2 ([3]; 1 mM) | proportion (%) of explants regenerating after 3 weeks, Experiment number 3 ([3]; 1 mM) | proportion (%) of explants regenerating after 3 weeks, Average ([3]; 5 mM) | proportion (%) of explants regenerating after 3 weeks, Experiment number 1 ([3]; 5 mM) | proportion (%) of explants regenerating after 3 weeks, Experiment number 2 ([3]; 5 mM)
33%: proportion (%) of explants regenerating after 3 weeks, Experiment number 2 ([1]; 0.5 mM) | proportion (%) of explants regenerating after 3 weeks, Experiment number 2 ([1]; 1 mM)
8%: proportion (%) of explants regenerating after 3 weeks, Average ([1]; 5 mM)
68%: germination: proportion (%) of explants regenerating after 1 week, Average ([2]; 1 mM)
32%: proportion (%) of explants germinated after 1 week, Average ([4]; 7.5 mM)
70%: germination: proportion (%) of explants regenerating after 1 week, Average ([2]; 0.5 mM) | germination: proportion (%) of explants regenerating after 1 week, Experiment number 1 ([2]; 1 mM) | germination: proportion (%) of explants regenerating after 1 week, Experiment number 2 ([2]; 1 mM) | proportion (%) of explants germinated after 1 week, Experiment Number 2 ([4]; 0.5 mM) | proportion (%) of explants germinated after 1 week, Experiment Number 2 ([4]; 5 mM)
57%: proportion (%) of explants germinated after 1 week, Average ([4]; 1 mM)
greater than 7.5 mM: levels that reduced the regeneration and germination of wheat plants ([1]; regeneration and germination (Tables 4 and 5))
0%: proportion (%) of explants regenerating after 3 weeks, Experiment number 1 ([1]; 7.5 mM) | proportion (%) of explants regenerating after 3 weeks, Average ([1]; 10 mM) | proportion (%) of explants regenerating after 3 weeks, Experiment number 1 ([1]; 10 mM) | proportion (%) of explants regenerating after 3 weeks, Experiment number 2 ([1]; 10 mM) | proportion (%) of explants regenerating after 3 weeks, Experiment number 3 ([1]; 10 mM) | proportion (%) of explants regenerating after 3 weeks, Average ([1]; 30 mM) | proportion (%) of explants regenerating after 3 weeks, Experiment number 1 ([1]; 30 mM) | proportion (%) of explants regenerating after 3 weeks, Experiment number 2 ([1]; 30 mM) | proportion (%) of explants regenerating after 3 weeks, Experiment number 3 ([1]; 30 mM) | germination: proportion (%) of explants regenerating after 1 week, Average ([2]; 30 mM) | germination: proportion (%) of explants regenerating after 1 week, Experiment number 1 ([2]; 30 mM) | germination: proportion (%) of explants regenerating after 1 week, Experiment number 2 ([2]; 30 mM) | germination: proportion (%) of explants regenerating after 1 week, Experiment number 3 ([2]; 30 mM) | proportion (%) of explants regenerating after 3 weeks, Average ([3]; 7.5 mM) | proportion (%) of explants regenerating after 3 weeks, Experiment number 1 ([3]; 7.5 mM) | proportion (%) of explants regenerating after 3 weeks, Experiment number 2 ([3]; 7.5 mM) | proportion (%) of explants regenerating after 3 weeks, Experiment number 3 ([3]; 7.5 mM) | proportion (%) of explants regenerating after 3 weeks, Average ([3]; 10 mM) | proportion (%) of explants regenerating after 3 weeks, Experiment number 1 ([3]; 10 mM) | proportion (%) of explants regenerating after 3 weeks, Experiment number 2 ([3]; 10 mM) | proportion (%) of explants regenerating after 3 weeks, Experiment number 3 ([3]; 10 mM) | proportion (%) of explants regenerating after 3 weeks, Average ([3]; 30 mM) | proportion (%) of explants regenerating after 3 weeks, Experiment number 1 ([3]; 30 mM) | proportion (%) of explants regenerating after 3 weeks, Experiment number 2 ([3]; 30 mM) | proportion (%) of explants regenerating after 3 weeks, Experiment number 3 ([3]; 30 mM) | proportion (%) of explants germinated after 1 week, Experiment Number 1 ([4]; 10 mM) | proportion (%) of explants germinated after 1 week, Average ([4]; 30 mM) | proportion (%) of explants germinated after 1 week, Experiment Number 1 ([4]; 30 mM) | proportion (%) of explants germinated after 1 week, Experiment Number 2 ([4]; 30 mM) | proportion (%) of explants germinated after 1 week, Experiment Number 3 ([4]; 30 mM)
55%: germination: proportion (%) of explants regenerating after 1 week, Experiment number 3 ([2]; 10 mM)
28%: proportion (%) of explants regenerating after 3 weeks, Average ([1]; 0.5 mM)
30%: proportion (%) of explants regenerating after 3 weeks, Experiment number 1 ([1]; 1 mM) | germination: proportion (%) of explants regenerating after 1 week, Experiment number 2 ([2]; 10 mM) | proportion (%) of explants germinated after 1 week, Experiment Number 1 ([4]; 1 mM)
62%: proportion (%) of explants germinated after 1 week, Average ([4]; 0.5 mM)
38%: proportion (%) of explants germinated after 1 week, Average ([4]; 5 mM)
25%: proportion (%) of explants germinated after 1 week, Experiment Number 3 ([4]; 5 mM) | proportion (%) of explants germinated after 1 week, Experiment Number 3 ([4]; 7.5 mM)
35%: germination: proportion (%) of explants regenerating after 1 week, Experiment number 3 ([2]; 7.5 mM) | proportion (%) of explants germinated after 1 week, Experiment Number 1 ([4]; 0.5 mM) | proportion (%) of explants germinated after 1 week, Experiment Number 2 ([4]; 10 mM)
60%: germination: proportion (%) of explants regenerating after 1 week, Experiment number 2 ([2]; 0.5 mM) | germination: proportion (%) of explants regenerating after 1 week, Experiment number 1 ([2]; 5 mM) | proportion (%) of explants germinated after 1 week, Experiment Number 3 ([4]; 1 mM) | proportion (%) of explants germinated after 1 week, Experiment Number 2 ([4]; 7.5 mM)
